Measured values as given in article PMC11770985 (Journal of proteome research, 2024).
Ends that are not written are not given here.

Substance	mean cytoplasmic abundance (HUVEC cells)	mean cytoplasmic abundance (Kasumi-1 cells)	mean cytoplasmic abundance (HEK293T cells)	change of nuclear accumulation after 24 hours of cell exposure (Huh-7 cells)	mean nuclear abundance (Huh-7 cells)
KLALKLALKALKAALKLAGAYGRKKRRQRRRAFSVDAETLWR-NH2 [KLAL-TAT-[barcode82]]	0 millions of molecules/cell	15 millions of molecules/cell	31 millions of molecules/cell		
RLALRLALRALRAALRLAGCYGRKKRRQRRR [RLAL-TAT-[barcode108]]				time-dependent increase in nuclear accumulation	196 millions of molecules/cell
